Experiments:
Experiment in all cases: Inhibition of ALDH isoenzymes (NAD(P)H formation at 340 nm, purified recombinant enzyme);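 for ALDH2 % Control at 20 μM: run at 25 °C, started by adding substrate after 2 min preincubation, with 100-200 nM ALDH2, 200 µM NAD+, 100 µM propionaldehyde, 1% DMSO in BES buffer pH 7.5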
Assay type in all cases: biochemical
[1] = biological target: T1, ALDH1A1 (Homo sapiens, UniProt P00352); settings: for remaining activity at 20 µM: compound at 20 μM, read-out: ALDH1A1 % Control at 20 μM; for IC50: 100-200 nM enzyme, 200 μM NAD+, 100 μM propionaldehyde, pH 7.5, 25° C.
T1 sequence (P00352 1-501): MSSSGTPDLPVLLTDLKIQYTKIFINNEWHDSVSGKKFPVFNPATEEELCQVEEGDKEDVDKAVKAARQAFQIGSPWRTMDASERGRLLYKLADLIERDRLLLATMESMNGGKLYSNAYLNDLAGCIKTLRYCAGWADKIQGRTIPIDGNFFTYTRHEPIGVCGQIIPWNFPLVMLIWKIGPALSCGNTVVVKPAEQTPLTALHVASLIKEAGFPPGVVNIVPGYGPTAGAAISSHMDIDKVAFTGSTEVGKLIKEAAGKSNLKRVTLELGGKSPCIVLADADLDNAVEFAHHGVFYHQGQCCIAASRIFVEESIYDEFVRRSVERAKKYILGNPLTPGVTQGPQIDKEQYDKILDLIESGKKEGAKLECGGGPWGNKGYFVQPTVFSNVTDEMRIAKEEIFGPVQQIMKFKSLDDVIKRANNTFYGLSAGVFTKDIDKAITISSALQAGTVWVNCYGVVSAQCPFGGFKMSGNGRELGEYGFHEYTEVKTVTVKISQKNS

[2] = biological target: T2, ALDH1A2 (Homo sapiens, UniProt O94788); settings: for remaining activity at 20 µM: compound at 20 μM, read-out: ALDH1A2 % Control at 20 μM; for IC50: 100-200 nM enzyme, 200 μM NAD+, 100 μM propionaldehyde, pH 7.5, 25° C.
T2 sequence (O94788 1-518): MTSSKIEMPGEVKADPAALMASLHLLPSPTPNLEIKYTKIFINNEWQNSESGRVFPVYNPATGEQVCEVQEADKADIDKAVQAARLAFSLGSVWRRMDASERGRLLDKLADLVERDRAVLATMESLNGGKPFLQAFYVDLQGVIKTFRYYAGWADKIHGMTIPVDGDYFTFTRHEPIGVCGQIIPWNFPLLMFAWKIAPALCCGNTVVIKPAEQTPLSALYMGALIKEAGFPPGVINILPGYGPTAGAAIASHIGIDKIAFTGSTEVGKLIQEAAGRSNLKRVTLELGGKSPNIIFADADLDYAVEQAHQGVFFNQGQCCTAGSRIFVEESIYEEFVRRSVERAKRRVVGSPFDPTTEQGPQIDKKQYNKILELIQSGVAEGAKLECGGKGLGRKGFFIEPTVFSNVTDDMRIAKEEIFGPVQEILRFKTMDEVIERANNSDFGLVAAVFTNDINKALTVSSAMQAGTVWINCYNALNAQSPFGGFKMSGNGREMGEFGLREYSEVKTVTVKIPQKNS

[3] = biological target: T3, ALDH1A3 (Homo sapiens, UniProt P47895); settings: for IC50: 100-200 nM enzyme, 200 μM NAD+, 100 μM propionaldehyde, pH 7.5, 25° C.; for remaining activity at 20 µM: compound at 20 μM, read-out: ALDH1A3 % Control at 20 μM
T3 sequence (P47895 1-512): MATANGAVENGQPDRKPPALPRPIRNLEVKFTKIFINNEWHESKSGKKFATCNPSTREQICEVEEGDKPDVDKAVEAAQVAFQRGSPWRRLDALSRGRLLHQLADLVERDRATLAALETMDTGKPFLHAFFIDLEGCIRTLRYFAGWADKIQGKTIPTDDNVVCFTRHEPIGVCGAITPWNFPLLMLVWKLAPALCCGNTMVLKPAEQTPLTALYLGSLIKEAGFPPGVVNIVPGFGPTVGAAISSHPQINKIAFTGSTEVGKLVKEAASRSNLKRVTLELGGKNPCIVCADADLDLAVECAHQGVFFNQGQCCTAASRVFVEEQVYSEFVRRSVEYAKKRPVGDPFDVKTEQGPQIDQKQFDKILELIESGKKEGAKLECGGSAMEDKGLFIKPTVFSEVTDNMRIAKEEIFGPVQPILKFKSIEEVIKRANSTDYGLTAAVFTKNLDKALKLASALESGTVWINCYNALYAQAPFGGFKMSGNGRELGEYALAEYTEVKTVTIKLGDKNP

[4] = biological target: T4, ALDH2 (Homo sapiens, UniProt P05091); settings: compound at 20 μM; read-out: ALDH2 % Control at 20 μM;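 note: run at 25 °C, started by adding substrate after 2 min preincubation, with 100-200 nM ALDH2, 200 µM NAD+, 100 µM propionaldehyde, 1% DMSO in BES buffer pH 7.5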
T4 sequence (P05091 18-517): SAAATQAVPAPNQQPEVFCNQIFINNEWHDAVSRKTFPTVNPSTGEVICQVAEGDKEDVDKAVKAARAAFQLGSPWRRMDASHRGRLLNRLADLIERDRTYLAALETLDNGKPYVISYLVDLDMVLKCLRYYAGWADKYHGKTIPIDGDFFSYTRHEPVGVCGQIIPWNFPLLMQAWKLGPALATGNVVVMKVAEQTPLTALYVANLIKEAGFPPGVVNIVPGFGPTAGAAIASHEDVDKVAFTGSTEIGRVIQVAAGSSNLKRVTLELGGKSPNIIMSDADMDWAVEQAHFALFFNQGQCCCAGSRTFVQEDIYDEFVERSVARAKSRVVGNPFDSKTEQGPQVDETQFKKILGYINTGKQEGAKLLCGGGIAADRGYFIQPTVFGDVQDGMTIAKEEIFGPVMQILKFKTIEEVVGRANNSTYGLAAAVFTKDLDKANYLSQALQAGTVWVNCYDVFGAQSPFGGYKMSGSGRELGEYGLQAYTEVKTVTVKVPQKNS

Row | Compound | ALDH1A1: compound is a substrate ([1]; result in words in place of IC50) | ALDH1A2: compound is a substrate ([2]; result in words) | IC50 [3] [nM] | remaining activity at 20 µM [4] [%] | remaining activity at 20 µM [1] [%] | remaining activity at 20 µM [2] [%] | remaining activity at 20 µM [3] [%] | IC50 [1] [nM] | IC50 [2] [nM]
1 | Cn1ncc2c(=O)n(C3CCCC3)c(SCc3cccc(F)c3)nc21 [Example 45, 5-cyclopentyl-6-((3-fluorobenzyl)thio)-1-methyl-1H-pyrazolo[3,4-d]pyrimidin-4(5H)-one] |  |  |  | 117 | 46 | 37 | 95 |  | 
2 | Cc1ccccc1-n1c(OCc2cccc(F)c2)nc2c(cnn2C)c1=O [Example 24, 6-((3-fluorobenzyl)oxy)-1-methyl-5-(o-tolyl)-1H-pyrazolo[3,4-d]pyrimidin-4(5H)-one] |  |  |  | 95 |  | 72 | 66 | 1200 | 
3 | Cn1ncc2c(=O)n(-c3ccccc3)c(CNCc3cccc(F)c3)nc21 [Example 26, 6-(((3-fluorobenzyl)amino)methyl)-1-methyl-5-phenyl-1H-pyrazolo[3,4-d]pyrimidin-4(5H)-one] |  |  |  | 98 | 28 | 77 | 74 |  | 
4 | O=c1c2cnn(C3COC3)c2nc(SCc2cccc(F)c2)n1-c1ccccc1 [Example 18, 6-((3-fluorobenzyl)thio)-1-(oxetan-3-yl)-5-phenyl-H-pyrazolo[3,4-d]pyrimidin-4(5H)-one] |  |  |  |  | 2 | 7 | 9 |  | 
5 | Cc1ccccc1-n1c(SCc2cccc(F)c2)nc2[nH]ncc2c1=O [Example 1, 6-((3-fluorobenzyl)thio)-5-(o-tolyl)-1H-pyrazolo[3,4-d]pyrimidin-4(5H)-one] |  |  | > 20000 |  |  |  |  |  | 4700

Results, then the molecule that gave them:

Row | ALDH1A1: compound is a substrate ([1]; result in words in place of IC50) | ALDH1A2: compound is a substrate ([2]; result in words) | IC50 [3] [nM] | remaining activity at 20 µM [4] [%] | remaining activity at 20 µM [1] [%] | remaining activity at 20 µM [2] [%] | remaining activity at 20 µM [3] [%] | IC50 [1] [nM] | IC50 [2] [nM] | Compound
6 | substrate | substrate | 236 | 89 |  |  |  |  |  | Cn1ncc2c(=O)n(-c3ccccc3)c(SCc3ccc(C=O)cc3)nc21 [Example 59, 4-(((1-methyl-4-oxo-5-phenyl-4,5-dihydro-1H-pyrazolo[3,4-d]pyrimidin-6-yl)thio)methyl)benzaldehyde]
7 |  |  |  | 96 | 26 | 34 | 24 |  |  | Cn1ncc2c(=O)n(-c3ccccc3)c(SC3CCCCC3)nc21 [Example 72, 6-(cyclohexylthio)-1-methyl-5-phenyl-1H-pyrazolo[3,4-d]pyrimidin-4(5H)-one]
8 |  |  | 207 | 88 |  |  |  | 281 | 265 | COc1cccc(CSc2nc3c(cnn3C)c(=O)n2-c2ccccc2)c1 [Example 54, 6-((3-methoxybenzyl)thio)-1-methyl-5-phenyl-1H-pyrazolo[3,4-d]pyrimidin-4(5H)-one]
9 |  |  |  |  |  |  | 9 |  |  | Cn1ncc2c(=O)n(-c3ccccc3F)c(SCc3cccc(F)c3)nc21 [Example 56, 6-((3-fluorobenzyl)thio)-5-(2-fluorophenyl)-1-methyl-1H-pyrazolo[3,4-d]pyrimidin-4(5H)-one]
10 |  |  |  | 98 | 24 |  | 26 |  |  | Cn1ncc2c(=O)n(-c3ccccc3)c(CCc3cccc(F)c3)nc21 [Example 48, 6-(3-fluorophenethyl)-1-methyl-5-phenyl-1H-pyrazolo[3,4-d]pyrimidin-4(5H)-one]
11 |  |  |  | 96 | 6 | 7 |  |  |  | CC(Sc1nc2c(cnn2C)c(=O)n1-c1ccccc1)c1cccnc1 (stereo not drawn) [Example 80, 1-methyl-5-phenyl-6-((1-(pyridin-3-yl)ethyl)thio)-1H-pyrazolo[3,4-d]pyrimidin-4(5H)-one]
12 |  |  |  | 92 | 9 | 1 |  |  |  | CC(Sc1nc2c(cnn2C)c(=O)n1-c1ccccc1)c1ccccn1 (stereo not drawn) [Example 79, 1-methyl-5-phenyl-6-((1-(pyridin-2-yl)ethyl)thio)-1H-pyrazolo[3,4-d]pyrimidin-4(5H)-one]

From patent publication US11944626B2, “Small molecule inhibitors of ALDH and uses thereof” (The Regents of the University of Michigan, priority 2016, dated 2024)
